Assay results as given in the SangsterLogP compilation.

Assays:
[1] = method code SF, from Hansch, C. & Leo, A. (1987). Log P database [Dataset]. Pomona College Medicinal Chemistry Project.

Compound	logP [1]	other results
CCCC(=CC(=O)NC(C)CC)c1ccc(Cl)cc1 (stereo not given)	–	logP: 4.34
CC(=O)Nc1cccc2nccnc12	–	logP: 1.06
CCC(C)c1cccc(C(C)C)c1O (stereo not given)	–	logP: 3.85
CCOC(=O)c1n[nH]c2ccc(CC)cc2c1=O	–	logP: 2.01
COc1cc(S(C)=O)ccc1-c1cn2cccnc2n1 (stereo not given)	–	logP: 0.64
CCC(C)NC(=O)C=C(c1ccccc1)c1ccc(Cl)cc1 (stereo not given)	–	logP: 4.11
CCC(C)NC(=O)C(=Cc1ccccc1)NC(=O)c1ccccc1 (stereo not given)	–	logP: 2.61
CCSC(=O)Oc1cccc2cccnc12	–	logP: 2.74
O=NN(CCCl)C(=O)Nc1ccccc1	–	logP: 2.49
CC12CC3(C)CC(C)(C1)CC(NC(=O)N(CCCl)N=O)(C2)C3	–	logP: 5.75
CCCCOc1ccc(O)cc1	–	logP: 2.9
CCC(C)NC(=O)C(=Cc1ccccc1)NC(C)=O (stereo not given)	–	logP: 1.76
CCC(C)NC(=O)C(C)=Cc1ccccc1 (stereo not given)	–	logP: 3.08
COc1cccc(NC(=O)N(CCCl)N=O)c1	–	logP: 2.66
CCC(C)NC(=O)C=C(N)c1ccc(Cl)cc1 (stereo not given)	–	logP: 2.85
C[C@]12CCC(=O)C=C1CC[C@@H]1[C@@H]2C(=O)C[C@@]2(C)[C@H]1CC[C@]2(O)C(=O)CO	–	logP: 1.64
CCC(C)c1cccc(C(C)CC)c1O (stereo not given)	–	logP: 4.38
CCC(C)NC(=O)C(C)=Cc1ccc(Cl)cc1 (stereo not given)	–	logP: 3.63
O=NN(CCCl)C(=O)Nc1ccc(Cl)cc1	–	logP: 3.16
COc1ccnc(C#N)n1	–	logP: 0.86
C[C@]1(O)CC[C@H]2[C@@H]3CCC4=CC(=O)CC[C@]4(C)[C@@]3(F)[C@@H](O)C[C@@]21C	–	logP: 2.38
FC(F)(F)CN(CC(F)(F)F)c1ccccc1	–	logP: 3.69
O=NN(CCCl)C(=O)NC1CCCCCCCCCCC1	–	logP: 5.64
CC(=O)Nc1ccc2nccnc2c1	–	logP: 1

Compound	logP [1]	other results
FC(F)(F)CN(CC(F)(F)F)c1ccc(Br)cc1	–	logP: 4.7
Cn1ccc(=O)cc1	-1.22	–
CN(C)C(=O)c1cccs1	0.75	–
CNC1(c2ccccc2Cl)CCCCC1=O (stereo not given)	–	logD ([1]; pH 13.0): 2.18
CCC(C)c1ccccc1OCC(=O)O (stereo not given)	3.32	–
CCOC(=O)C(=Cc1cccc(Cl)c1)C(=O)OCC	3.49	–
COC1OC(=O)c2ccccc21 (stereo not given)	1	–
N=c1ccccn1O	–	logD ([1]; pH 7.4): -0.87
CCCOc1cccc(C=C(C(=O)OCC)C(=O)OCC)c1	4	–
CN(N=Nc1ccc(C(N)=O)cc1)C(C)(C)C	2.61	–
[O-][N+](=Cc1c(Cl)cccc1Cl)c1ccccc1	2.16	–
CCOC(=O)C(C#N)=Cc1ccccc1	2.43	–
CCCc1ccncc1	2.1	–
CC(=O)Oc1ccccc1Cl	2.18	–
O=S1(=O)Nc2ccccc2N1	1.12	–
CCC(C)NC(=O)C(=Cc1ccccc1)SC (stereo not given)	–	logP: 3.53
CC1=Nc2c([N+](=O)[O-])cc(Cl)cc2S(=O)(=O)N1	0.85	–
CC1(C)N=C(N)N=C(N)N1c1ccccc1	–	logD ([1]; pH 13.0): 0.28
CN(Cc1ccccc1)/N=N/c1ccc(C#N)cc1	3.82	–
COc1cc(C=O)ccc1OCCOC(=O)c1ccc(Cl)cc1	3.71	–
S=c1cccc[nH]1	-0.13	–
CCCOCCC	2.03	–
CCOC(=O)C(=Cc1ccccc1)C(C)=O	2.21	–
CC(=O)Nc1ccc2c(c1)[nH]c1ccccc12	3.02	–

Compound	logP [1]	other results
O=S1(=O)NC(C2CCC2)=Nc2ccc(Cl)cc21	2.24	–
CC1(C)N=C(N)N=C(N)N1c1ccc(OCC(=O)N2CCOCC2)cc1	–	logD ([1]; pH 13.0): -1.18
O=C(O)c1cc(=O)c2c(OCC(O)COc3cccc4oc(C(=O)O)cc(=O)c34)cccc2o1	1.92	–
NC(=O)c1cccc(OC(=O)CNC(=O)c2ccccc2)c1	1.2	–
NC(=O)c1ccco1	–	logD ([1]; pH 7.0): -0.11
CCOC(=O)C(O)c1ccccc1 (stereo not given)	1.53	–
Nc1cccc([N+](=O)[O-])c1N	1.27	–
CC(=O)Nc1cnc2ccccc2n1	–	logP: 1.53
N#CN=[N+]([O-])c1cccc(C(F)(F)F)c1	2.52	–
Clc1nnnn1-c1ccccc1	1.48	–
CCOCCOC(=O)C(C#N)=C(CC)NCc1ccc([N+](=O)[O-])cc1	2.64	–
COC(=O)c1ccccc1NC(C)=O	1.65	–
O=C1CN=C(c2ccc[nH]2)c2cc(Cl)ccc2N1	2.59	–
CN(C)/N=N/c1cccc(C(F)(F)F)c1	3.78	–
O=Cc1cccc(Oc2ccccc2)c1	3.38	–
C=C(C)C	2.34	–
COc1ccc(C(C)=O)c(N)c1	1.76	–
O=C(O)C(c1ccccc1)c1ccccc1	–	logD ([1]; pH 1.0): 3.09
COc1cccc2c1C(=O)c1c(O)c3c(c(O)c1C2=O)C[C@@](O)(C(=O)CO)C[C@@H]3O	2.74	–
CCC(=O)c1ccncc1	0.77	–
CCC(=Cc1ccccc1)[N+](=O)[O-]	2.86	–
CC(=O)Nc1ccccc1C(F)(F)F	1.11	–
CC(=O)Nc1cccs1	1.1	–
CCOC(=O)CCc1ccccc1	2.73	–

Compound	logP [1]	other results
CC(=O)Nc1cccc(C(C)=O)c1	1.1	–
Nc1cccc2cc3ccccc3nc12	3.26	–
CC(C)(C)c1cc(O)ccc1[N+](=O)[O-]	3.65	–
Cc1oc2cc(OCC#N)ccc2c(=O)c1C	1.96	–
N#CN/C(N)=N/c1ccccc1	1.05	–
NC(=O)c1ccsc1	0.5	–
N#CN=[N+]([O-])c1ccccc1	1.87	–
CN(C)CCc1ccsc1	1.94	–
NC(=O)N=[N+]([O-])c1ccccc1	0.58	–
CCOC(=O)C(=Cc1ccc(Cl)cc1)C(=O)OCC	3.96	–
N#CN=[N+]([O-])c1ccc(C(F)(F)F)cc1	2.47	–
O=[N+]([O-])Cc1ccccc1	1.75	–
CC1OC(=O)c2ccccc21 (stereo not given)	1.41	–
CCC(C)NC(=O)C=C(Br)c1ccc(Cl)cc1 (stereo not given)	3.9	–
CC1=Nc2ccc(F)cc2S(=O)(=O)N1	0.62	–
O=C1OC(C2CCCCC2)c2ccccc21 (stereo not given)	3.34	–
O=C1C(N2CCOCC2)=C(N2CC2)C(=O)C(N2CCOCC2)=C1N1CC1	0.52	–
C[C@@H]1C[C@H]2[C@@H]3C[C@H](F)C4=CC(=O)C(Cl)=C[C@]4(C)[C@@]3(Cl)[C@@H](O)C[C@]2(C)[C@@]1(O)C(=O)COC(=O)C(C)(C)C	4.73	–
O=[N+]([O-])c1ccc(C(F)(F)F)cc1	2.55	–
O=C(O)c1ccccc1Oc1ccccc1	–	logD ([1]; pH 1.0): 3.11
NC(=O)c1ccc(N)nc1	–	logD ([1]; pH 7.0): 0.7
CCNCc1cccnc1	–	logD ([1]; pH 11.0): 0.76
CCCc1c(OCCCCc2nnn[nH]2)ccc(C(C)=O)c1O	–	logD ([1]; pH 2.2): 3.82
O=NN(CCCl)C(=O)NC1CCC(O)CC1 (stereo not given)	1.11	–

Compound	logP [1]	other results
CC1(C)N=C(N)N=C(N)N1c1cccc(COc2cccc(NC(N)=O)c2)c1	–	logD ([1]; pH 13.0): 0.9
CS(=O)(=O)Nc1ccccc1	0.95	–
COC(=O)CNC(=O)c1ccccc1	0.82	–
C[C@@H]1CC[C@H](C)N1C(=O)Nc1ccccc1	2.33	–
O=S1(=O)NC(C2CC3C=CC2C3)=Nc2ccccc21 (stereo not given)	2.06	–
CS(=O)(=O)Oc1ccccc1Cc1cnc(N)nc1N	–	logD ([1]; pH 13.0): 0.71
CC1=Nc2c(Cl)cccc2S(=O)(=O)N1	0.72	–
Cc1c(N(C)C)c(=O)n(C)c(=O)n1C	–	logD ([1]; pH 7.4): 0.99
c1cnc2ccc3ncccc3c2c1	2.05	–
COc1cccc(OC(=O)N(C)C)c1	1.6	–
NN1CCCCC1	–	logD ([1]; pH 9.0): -0.28
CC1CCCC1	3.37	–
C=CCOc1ccccc1	2.94	–
COc1cc(OC)c(OC)c2c1CC[C@H](NC(C)=O)c1cc(=O)c(NCc3ccccc3)ccc1-2	3.58	–
CCSc1ccccc1	3.2	–
CC(=O)Nc1ccc2c(=O)c(C)c(C)oc2c1[N+](=O)[O-]	1.61	–
Nc1ncnc2nc(-c3ccccc3)[nH]c12	–	logD ([1]; pH 7.3): 2.31
CCOC(=O)NC(O)C(Cl)(Cl)Cl (stereo not given)	1.84	–
O=[N+]([O-])c1ccc2[nH]c(C(O)C(O)c3nc4cc([N+](=O)[O-])ccc4[nH]3)nc2c1 (stereo not given)	1.45	–
O=C(c1ccncc1)c1ccccc1O	2.13	–
[O-][n+]1cc(-c2ccccc2)ncc1-c1ccccc1	–	logP: 3.27
O=[N+]([O-])c1ccc2ncccc2c1	1.84	–
CCOC(=O)c1cccnc1	1.34	–
O=[N+]([O-])c1ccc2[nH]c(CCCc3nc4cc([N+](=O)[O-])ccc4[nH]3)nc2c1	1.62	–
